Measured values published in patent publication US10271539B2, “Assay-ready frozen cell and method for minimizing variability in the performance thereof” (LE CENTRE NATIONALE DE LA RECHERCHE SCIENTIFIQUE (CNRS), priority 2013, dated 2019).
“Also recorded” adds a separate entry of the source. Where a SMILES comes first, the peptide text is derived from it. [ ]: non-standard residue; d: D form. The star is where a group is joined. Sta = CC(C)C[C@H](N)[C@@H](O)CC(=O)O; Isovaleryl = CC(C)CC(=O)*; Cbz = O=C(OCc1ccccc1)*

Legend:
[1] = tested on: KJL-2 cells; assay: TNFα-induced firefly luciferase (FL) / Renilla luciferase (RL) reporter gene assay (DUAL-GLO) in vinblastin-treated, frozen and thawed KJL-2 cells; type: cell-based, human; settings: for FL/RL ratio: scavengers/chelators of reactive oxygen species, cells treated 10 minutes
Protocol: The X-axis is TNFα, ng/ml.
KJL-2 cells were used in all experiments (carried out to date). […] In order to reduce the formation of ice crystals and subsequent cell lysis, all experimental groups were frozen using the alcohol-free Biocison controlled freezing system that cools cells at approximately 1.0° C./minute.

[2] = tested on: KJL-2 cells; assay: Staurosporine-induced apoptosis: FL and RL activity in KJL-2 cells; type: cell-based, human; settings: 10 micromolar staurosporine, over 24 hours
Protocol: Briefly, untreated cells or cells treated with vinblastin as described in WO 2004/039990; US 2004/0235157 and U.S. Pat. No. 7,470,536 were treated for 10 minutes with substances that inhibit the formation of reactive oxygen species and/or scavengers of reactive oxygen species either alone or concomitantly with vinblastin treatment. The cells were then frozen using the cryopreservative medium described in WO 2004/039990; US 2004/0235157 and U.S. Pat. No. 7,470,536 with or without substances that inhibit the formation of reactive oxygen species and/or scavengers of reactive oxygen species. KJL-2 cells were used in all experiments (carried out to date). All groups were treated with vinblastin using the same procedure as described in WO 2004/039990; US 2004/0235157 and U.S. Pat. No. 7,470,536. In order to reduce the formation of ice crystals and subsequent cell lysis, all experimental groups were frozen using the alcohol-free Biocison controlled freezing system that cools cells at approximately 1.0° C./minute. All assays were performed using DUAL-GLO (Promega, Catalogue No 2920) that allows Firefly luciferase (FL) and Renilla luciferase (RL) activity to be determined sequentially in the same well of a microtiter plate.

[3] = substances that reduce H2O2 (COX inhibitors)
[4] = pre-treatment of cells with proteasome inhibitor
[5] = NAC both during treatment with vinblastin and in the cryopreservative medium
[6] = pre-treatment of cells with protease inhibitor and addition to the freezing medium

Q: `CC(=O)Oc1ccccc1C(=O)O` [Acetylsalicylic acid, acetylsalicylic acid] was tested. Which FL activity [1, 3] did it give?
A: The FL activity was “increased FL activity marginally”.

Q: How did the “vial-to-vial variation in normalized RLU and normalized fold induction” value ([1]; 1 mM GSH, FIGS. 5A and 5B) turn out when `N[C@@H](CCC(=O)N[C@@H](CS)C(=O)NCC(=O)O)C(=O)O` [GSH, glutathione SH] was run?
A: Its value is “appeared to be effective in reducing vial-to-vial variation”.

Q: And the “vial-to-vial variation in normalized RLU and normalized fold induction” value ([1]; 1 mM GSH, FIGS. 5A and 5B, listed as glutathione SH)?
A: The value was “higher degree of variability in FL readings”.

Q: With `CC(C)C[C@@H](C=O)NC(=O)[C@H](CC(C)C)NC(=O)[C@H](CC(C)C)NC(=O)OCc1ccccc1` [MG-132] (Cbz-Leu-Leu-Leu-aldehyde) as the compound, how does the FL activity [1, 4] read?
A: Its FL activity is “did not increase FL activity significantly; also recorded: reduced FL activity”.

Q: How did the FL/RL ratio [1] turn out when `OC[C@@H](O)[C@@H](O)[C@H](O)[C@H](O)CO` [Mannitol] was run?
A: Its FL/RL ratio is “without effect”.

Q: Which “vial-to-vial variation in normalized RLU and normalized fold induction” value ([1]; 5 mM NAC, FIGS. 6A and 6B) does the source give for `CC(=O)N[C@@H](CSSC[C@H](N)C(=O)O)C(=O)O` [N-acetylcystine] here?
A: Its value is “superior to GSH treatment in reducing vial-to-vial variation”.

Q: And the “lot-to-lot variation in the performance of assay-ready frozen cells” value [1, 5]?
A: The value was “markedly reducing”.

Q: What about the “vial-to-vial variation in the performance of assay-ready frozen cells” value [1, 5] of the same compound?
A: The value was “markedly reducing”.

Q: How did the FL activity [1, 6] turn out when `O=S(=O)(F)Cc1ccccc1` [PMSF] was run?
A: Its FL activity is “did not significantly increase FL activity”.

Q: How did the FL activity [1, 6] turn out when `CC(C)CC(=O)N[C@H](C(=O)N[C@H](C(=O)N[C@@H](CC(C)C)[C@@H](O)CC(=O)N[C@@H](C)C(=O)N[C@@H](CC(C)C)[C@@H](O)CC(=O)O)C(C)C)C(C)C` [Pepstatin A] (Isovaleryl-VV[Sta]A[Sta]-OH) was run?
A: Its FL activity is “did not significantly increase FL activity”.

Q: `CC1(C)CC(O)CC(C)(C)N1[O]` [TEMPOL] was tested. Which FL/RL ratio [1] did it give?
A: Its FL/RL ratio is “without effect”.

Q: With `O=S(=O)(O)c1cc(O)c(O)c(S(=O)(=O)O)c1` [Tiron] as the compound, how does the FL/RL ratio [1] read?
A: The FL/RL ratio was “without effect”.

Q: For `CS(=O)(=O)c1ccc(C2=C(c3ccccc3)C(=O)OC2)cc1` [VIOXX, rofecoxib], which FL activity [1, 3] is on record?
A: The FL activity was “increased FL activity marginally”.

Q: What does the source list for `Oc1ncnc2[nH]ncc12` [allopurinol]?
A: FL values (RLU) ([1]; 100 μM allopurinol in cryopreservative, frozen one day or 5 days, vs control, FIGS. 1A and 1B): significantly increases FL values; intra-vial (vial to vial) variation in normalized RLU and normalized fold induction ([1]; 100 μM allopurinol, relative to cells treated with vinblastin alone, FIGS. 3A-4B): reduced intra-vial variation; form of the TNFα dose response curve ([1]; 100 μM allopurinol, TNFα of 10 ng/ml and higher, FIGS. 4A and 4B): some alteration of the form of the TNFα dose response curve

Q: `Cl.N` [ammonium chloride] was tested. Which FL activity [1, 6] did it give?
A: Its FL activity is “did not significantly increase FL activity”.

Q: Which FL activity [1, 4] does the source give for `CC[C@H](C)[C@H](NC(=O)[C@H]([C@@H](C)CC)N(C)C(C)=O)C(=O)N[C@H](C(=O)N[C@@H](CC(C)C)C(=O)[C@@]1(C)CO1)[C@@H](C)O` [epoxomicin] here?
A: The FL activity was “did not increase FL activity significantly”.

Q: Which FL activity [1, 4] does the source give for `CC(=O)N[C@@H](CSC(=O)[C@]1([C@@H](O)C(C)C)NC(=O)[C@H](C)[C@@H]1O)C(=O)O` [lactacystin] here?
A: The FL activity was “did not increase FL activity significantly”.

Q: With `CN[C@@H]1C[C@H]2O[C@@](C)([C@@H]1OC)n1c3ccccc3c3c4c(c5c6ccccc6n2c5c31)C(=O)NC4` [staurosporine] as the compound, how does the FL activity [2] read?
A: Its FL activity is “inhibits FL activity progressively”.

Q: And the RL activity [2]?
A: The RL activity was “remains fairly constant”.

Q: With `NCCNCCNCCNCCN` [tetra ethylenepentamine] as the compound, how does the FL/RL ratio [1] read?
A: The FL/RL ratio was “without effect”.

Q: How did the FL/RL ratio [1] turn out when MNTMPyP was run?
A: Its FL/RL ratio is “without effect”.
